Results: US20250154525A1, “PLANT VIRUS MOVEMENT PROTEINS AND METHODS OF USING SAME” (Molecular Transfer, Inc., priority 2016, published 2025)

Assays:
HuVec Cells = assay: GFP plasmid transfection with DOTMA/DOPE plus surface ligand peptide, fluorescent plate reader (Example 1); format: cell-based; conditions: DOTMA/DOPE + peptide linked to R12 or K16; EF1Alpha eGFP plasmid; 42 hours
Description: (§1) Cells were plated to so that on the day of transfection the cells were 70% confluent in 96 well tissue culture plates. A DOMTA/DOPE Lipid solution (1:1 molar ratio) at 2 mg/mL in water were mixed with an equal volume cell surface ligand containing adhesion peptide, the plant virus movement protein, or peptide derived therefrom, that had the nucleic acid binding moiety RRRRRRRRRRRR (SEQ ID NO:109) or KKKKKKKKKKKKKKKK (SEQ ID NO: 102) covalently linked to the N-terminus, or C-terminus of each peptide during peptide synthesis. Peptides were at 2 mg/mL in water. The DOTMA/DOPE and the solution containing the cell surface ligand containing adhesion peptide, the plant virus movement protein, or peptide derived therefrom, surface ligand peptide the was diluted 1 to 1 (v/v) in water. DOMTA/DOPE/PEPTIDE solutions were added to 0.1 mL of a plasmid DNA solution (EF1Alpha eGFP plasmid) at 10 μg/mL in OptiMEM.
(§2) All solutions were at room temperature. A volume of 0.2 mL of a 10 μg/mL solution of DNA was aliquoted into each well of a non-tissue cultured treated plate. 1-12 μL of transfection reagents were added to DNA solutions respectively. The transfection reagent and DNA solution was mixed by pipetting up and down twice. Transfection complexes were formed for 10 minutes. After 10 minutes, 0.01 or 0.02 mL of the transfection complex was added to cells. HuVEC, HeLa, human adult keratinocytes, human primary adult fibroblast, and A549 cells all respectively received 0.01 mL of the transfection complex. Human skeletal muscle cells, mouse C2C12 cells, and Jurkat, cells received 0.02 mL of the transfection complex. Cells were incubated for 42 hours at 37° C. at 5% CO2. Plates were read on a fluorescent plate reader. Cells were also examined visually under a microscope to assess the extent of transfection (in terms of the percent of cells transfected) with a fluorescent microscope. Other modes of analysis, for example quantification with B-galactocidase or luciferase reports plasmids can also be used.
(§3) Surface ligand that caused increase expression of GFP over the lipid DOTMA with no surface ligand were considered to enhance transfection or had higher % cells transfected were considered to enhance transfection. Peptides that gave greater than 2-fold enhancement are noted in bold and could be further optimized by adding different transfection enhancers or could be used with different cationic lipids or polymers.
(§4) Tables 2-7, below, provide the results of the transfection enhancements with the various cell types, while Table 8 lists the peptides that were determined by visual inspection to enhance the transfection of the denoted cell lines over the lipid DOTMA.

Jurkat Cells = assay: as above; format: cell-based; conditions: DOTMA/DOPE + peptide linked to R12 or K16; EF1Alpha eGFP plasmid; 42 hours
Description: as §1, §2, §3, §4

Human Fibroblast Cells = assay: as above; format: cell-based; conditions: DOTMA/DOPE + peptide linked to R12 or K16; EF1Alpha eGFP plasmid; 42 hours
Description: as §1, §2, §3, §4

HeLa Cells [1] = assay: as above; format: cell-based; conditions: DOTMA/DOPE + peptide linked to R12 or K16; EF1Alpha eGFP plasmid; 42 hours
Description: as §1, §2, §3, §4

NL-1 iPS Cells = assay: as above; format: cell-based; conditions: DOTMA/DOPE + peptide linked to R12 or K16; EF1Alpha eGFP plasmid; 42 hours
Description: as §1, §2, §3, §4

C2C12 Cells = assay: as above; format: cell-based, mouse; conditions: DOTMA/DOPE + peptide linked to R12 or K16; EF1Alpha eGFP plasmid; 42 hours
Description: as §1, §2, §3, §4

HeLa Cells [2] = assay: GFP transfection with DOTMA/SEQ ID NO: 72 (fusogenic peptide)/peptide compared with Lipofectamine 2000; format: cell-based
Description: as §1, §2
The fusogenic peptide was added to the DOMTA/peptide formulation to achieve a final concentration of 0.1 mg/mL to see if transfection reagents were further enhanced by the addition of a fusogenic peptide and could provide higher transfection efficiency into HeLa cells and expression than the commercially available Lipofectamine 2000.

some examined cell types = assay: Summary of Example 1: transfection expression and % cells transfected over the no peptide control; format: cell-based; conditions: on some examined cell types
Description: as §1, §2, §3

[3] = 0.1 μL of DOTMA/SEQ ID NO: 72/Peptide in well of a 96 well plate
[4] = 0.2 μL of DOTMA/SEQ ID NO: 72/Peptide in well of a 96 well plate
[5] = 0.3 μL of DOTMA/SEQ ID NO: 72/Peptide in well of a 96 well plate
[6] = 0.4 μL of DOTMA/SEQ ID NO: 72/Peptide in well of a 96 well plate

Substance	Relative Fluorescence of Transfection of HuVec Cells (RF) (HuVec Cells)	Relative Fluorescence of Transfection of Jurkat Cells (RF) (Jurkat Cells)	Relative Fluorescence of Transfection of Human Fibroblast Cells (RF) (Human Fibroblast Cells)	Relative Fluorescence of Transfection of HeLa Cells (RF) (HeLa Cells [1])	Relative Fluorescence of Transfection of NL-1 iPS Cells (RF) (NL-1 iPS Cells)	Relative Fluorescence of Transfection of C2C12 Cells (RF) (C2C12 Cells)	Relative Fluorescence DOTMA/SEQ ID NO: 72/Peptide, HeLa Cells (RF) (HeLa Cells [2]; [3])	Relative Fluorescence DOTMA/SEQ ID NO: 72/Peptide, HeLa Cells (RF) (HeLa Cells [2]; [4])	Relative Fluorescence DOTMA/SEQ ID NO: 72/Peptide, HeLa Cells (RF) (HeLa Cells [2]; [5])	Relative Fluorescence DOTMA/SEQ ID NO: 72/Peptide, HeLa Cells (RF) (HeLa Cells [2]; [6])	transfection expression and % cells transfected over the no peptide control (some examined cell types)
365 (ISRCQVCMKKRH) [compound 365]	14764	5298	5219	36093	6364	5390	26620	43775	36054	21540	increased transfection expression and the % cells transfected
375 (LAGSCLPVFSTL) [compound 375]	5542	4272	7305	41076	5196	5633	22457	30891	34887	29024	increased transfection expression and the % cells transfected
326 (RLVSYSGVLFFLK) [compound 326]	4932	3018	3070	18946	9239	8553	6887	9487	10330	9227	increased transfection expression and the % cells transfected
369 (TAIPSCPEGTVPLYS) [compound 369]	6536	11085	7590	14444	13124	3322	8737	16706	14880	12645	increased transfection expression and the % cells transfected
352 (RIQNLLKITNLRIKFVK) [compound 352]	3130	3150	3059	32126	11628	3324					increased transfection expression and the % cells transfected
332 (TWYKIAFQRNRK) [compound 332]	4221	3052	5178	9198	8725	537					increased transfection expression and the % cells transfected
226 (ANGQTPIQRYIK) [compound 226]	20864	12976	3431	7340	24920	1664					increased transfection expression and the % cells transfected
205 (AASIKVAVSADR) [compound 205]	8309	2298	8550	26368	13140	2102					increased transfection expression and the % cells transfected
220 (ATETTITIS) [compound 220]	8737	6428	4516	9398	15892	1470					increased transfection expression and the % cells transfected
359 (KAFDITYVRLKF) [compound 359]	3024	1880	3206	3136	5548	5693					increased transfection expression and the % cells transfected
361 (YIGSR) [compound 361]	6017	7006	7014	3698	9363	585					increased transfection expression and the % cells transfected
354 (SINNTAVMQRLT) [compound 354]	19284	16705	4998	4403	24043	1912					increased transfection expression and the % cells transfected
256 (RQVFQVAYIIIKA) [compound 256]	3030	3322	2656	2243	1825	3207					increased transfection expression and the % cells transfected
